Results published in the NIST ThermoML archive (doi:10.1021/je400803f).

Experiment: xn = mol fraction of the nth substance listed
Settings: 101 kPa, Liquid, Vibrating tube method

CCNC=O [N-ethylformamide] + CCCC[N+]1(C)CCCC1.FC(F)(F)C(F)(F)[P-](F)(F)(F)(C(F)(F)C(F)(F)F)C(F)(F)C(F)(F)F
mass density [kg/m3]
Settings | 293.15 K | 298.15 K | 303.15 K | 308.15 K | 313.15 K | 318.15 K | 323.15 K
x2 = 0.0355 | 1046.38 | 1042.01 | 1037.61 | 1033.05 | 1028.58 | 1024.03 | 1019.35
x2 = 0.0753 | 1128.67 | 1124.07 | 1119.47 | 1114.62 | 1109.94 | 1105.19 | 1100.26
x2 = 0.0995 | 1169.56 | 1164.94 | 1160.15 | 1155.23 | 1150.34 | 1145.54 | 1140.56
x2 = 0.1508 | 1240.4 | 1235.52 | 1230.53 | 1225.54 | 1220.42 | 1215.44 | 1210.24
x2 = 0.2001 | 1293.64 | 1288.61 | 1283.5 | 1278.35 | 1273.19 | 1267.97 | 1262.79
x2 = 0.3045 | 1375.94 | 1370.73 | 1365.53 | 1360.23 | 1354.95 | 1349.61 | 1344.26
x2 = 0.3996 | 1429.28 | 1424.04 | 1418.68 | 1413.37 | 1407.95 | 1402.56 | 1397.21
x2 = 0.5028 | 1472.71 | 1467.38 | 1462.01 | 1456.63 | 1451.21 | 1445.76 | 1440.28
x2 = 0.5527 | 1489.92 | 1484.53 | 1479.12 | 1473.75 | 1468.31 | 1462.86 | 1457.36
x2 = 0.5989 | 1504.15 | 1498.78 | 1493.4 | 1487.95 | 1482.48 | 1477.03 | 1471.54
x2 = 0.7015 | 1531.11 | 1525.64 | 1520.2 | 1514.75 | 1509.27 | 1503.82 | 1498.32
x2 = 0.7983 | 1552.06 | 1546.66 | 1541.23 | 1535.76 | 1530.25 | 1524.73 | 1519.18
x2 = 0.8866 | 1568.75 | 1563.32 | 1557.82 | 1552.35 | 1546.84 | 1541.33 | 1535.77
x2 = 0.951 | 1580.11 | 1574.66 | 1569.19 | 1563.71 | 1558.18 | 1552.64 | 1547.05

CCCCN(C=O)CCCC [N,N-dibutylformamide] + CCCC[N+]1(C)CCCC1.FC(F)(F)C(F)(F)[P-](F)(F)(F)(C(F)(F)C(F)(F)F)C(F)(F)C(F)(F)F
mass density [kg/m3]
Settings | 293.15 K | 298.15 K | 303.15 K | 308.15 K | 313.15 K | 318.15 K | 323.15 K
x2 = 0.0351 | 928.01 | 923.97 | 919.87 | 915.81 | 911.67 | 907.43 | 903.16
x2 = 0.0697 | 972.58 | 968.41 | 964.18 | 960.06 | 955.82 | 951.45 | 947.14
x2 = 0.0998 | 1008.79 | 1004.57 | 1000.33 | 996.06 | 991.74 | 987.31 | 982.93
x2 = 0.1498 | 1064.17 | 1059.81 | 1055.39 | 1051.03 | 1046.54 | 1042.09 | 1037.62
x2 = 0.1994 | 1114.29 | 1109.89 | 1105.41 | 1100.9 | 1096.39 | 1091.73 | 1087.01
x2 = 0.2999 | 1204.19 | 1199.58 | 1194.89 | 1190.17 | 1185.45 | 1180.61 | 1175.67
x2 = 0.4003 | 1281.29 | 1276.52 | 1271.65 | 1266.78 | 1261.89 | 1256.88 | 1251.71
x2 = 0.499 | 1347.44 | 1342.55 | 1337.52 | 1332.49 | 1327.52 | 1322.34 | 1317.03
x2 = 0.5993 | 1406.59 | 1401.54 | 1396.37 | 1391.2 | 1386.12 | 1380.87 | 1375.47
x2 = 0.6799 | 1449.07 | 1443.87 | 1438.69 | 1433.45 | 1428.23 | 1422.89 | 1417.48
x2 = 0.7754 | 1494.51 | 1489.34 | 1483.96 | 1478.61 | 1473.39 | 1467.94 | 1462.42
x2 = 0.8021 | 1506.51 | 1501.2 | 1495.89 | 1490.51 | 1485.21 | 1479.75 | 1474.28
x2 = 0.9011 | 1548.52 | 1543.24 | 1537.81 | 1532.31 | 1526.89 | 1521.4 | 1515.91
x2 = 0.949 | 1568.08 | 1562.74 | 1557.33 | 1551.79 | 1546.31 | 1540.77 | 1535.23

CCCC[N+]1(C)CCCC1.FC(F)(F)C(F)(F)[P-](F)(F)(F)(C(F)(F)C(F)(F)F)C(F)(F)C(F)(F)F + CN(C)C=O
mass density [kg/m3]
Settings | 293.15 K | 298.15 K | 303.15 K | 308.15 K | 313.15 K | 318.15 K | 323.15 K
x1 = 0.0165 | 993.84 | 988.9 | 983.96 | 978.95 | 973.88 | 968.76 | 963.52
x1 = 0.0379 | 1045.32 | 1040.31 | 1035.26 | 1030.17 | 1024.98 | 1019.76 | 1014.46
x1 = 0.0636 | 1098.24 | 1093.11 | 1087.96 | 1082.78 | 1077.52 | 1072.2 | 1066.82
x1 = 0.0999 | 1160.65 | 1155.44 | 1150.21 | 1144.9 | 1139.55 | 1134.13 | 1128.66
x1 = 0.1381 | 1214.48 | 1209.17 | 1203.86 | 1198.5 | 1193.09 | 1187.58 | 1182.02
x1 = 0.2002 | 1284.15 | 1278.78 | 1273.37 | 1267.93 | 1262.4 | 1256.85 | 1251.25
x1 = 0.3038 | 1367.83 | 1362.38 | 1356.95 | 1351.43 | 1345.95 | 1340.13 | 1334.59
x1 = 0.3944 | 1420.86 | 1415.36 | 1409.86 | 1404.36 | 1398.78 | 1393.18 | 1387.5
x1 = 0.4946 | 1465.66 | 1460.2 | 1454.71 | 1449.18 | 1443.63 | 1438.04 | 1432.36
x1 = 0.5997 | 1502.25 | 1496.77 | 1491.29 | 1485.78 | 1480.25 | 1474.66 | 1469.03
x1 = 0.6972 | 1529.32 | 1523.85 | 1518.39 | 1512.87 | 1507.34 | 1501.77 | 1496.17
x1 = 0.7887 | 1550.58 | 1545.07 | 1539.56 | 1534.11 | 1528.58 | 1523.04 | 1517.43
x1 = 0.8853 | 1569.6 | 1564.14 | 1558.67 | 1553.16 | 1547.65 | 1542.09 | 1536.51

CCCC[N+]1(C)CCCC1.FC(F)(F)C(F)(F)[P-](F)(F)(F)(C(F)(F)C(F)(F)F)C(F)(F)C(F)(F)F + CC(=O)N(C)C
mass density [kg/m3]
Settings | 293.15 K | 298.15 K | 303.15 K | 308.15 K | 313.15 K | 318.15 K | 323.15 K
x1 = 0.0182 | 983.51 | 978.8 | 974.05 | 969.23 | 964.38 | 959.48 | 954.43
x1 = 0.0658 | 1076.12 | 1071.23 | 1066.29 | 1061.3 | 1056.27 | 1051.2 | 1046.01
x1 = 0.099 | 1128.83 | 1123.84 | 1118.81 | 1113.75 | 1108.63 | 1103.46 | 1098.22
x1 = 0.1925 | 1243.41 | 1238.24 | 1233.05 | 1227.86 | 1222.59 | 1217.27 | 1211.86
x1 = 0.2995 | 1334.81 | 1329.56 | 1324.29 | 1318.96 | 1313.61 | 1308.22 | 1302.76
x1 = 0.4032 | 1399.72 | 1394.36 | 1389.05 | 1383.7 | 1378.3 | 1372.86 | 1367.34
x1 = 0.5012 | 1446.97 | 1441.77 | 1436.59 | 1431.01 | 1425.38 | 1420.2 | 1414.53
x1 = 0.6048 | 1487.12 | 1482 | 1476.86 | 1470.97 | 1465.48 | 1460.22 | 1454.65
x1 = 0.7078 | 1520.04 | 1514.92 | 1509.86 | 1504.04 | 1498.52 | 1492.71 | 1487.58
x1 = 0.806 | 1546.68 | 1541.65 | 1536.23 | 1530.12 | 1524.91 | 1519.13 | 1513.85
x1 = 0.8469 | 1556.58 | 1551.46 | 1546.01 | 1539.99 | 1534.65 | 1528.99 | 1523.64
x1 = 0.9176 | 1572.41 | 1567.01 | 1561.51 | 1555.89 | 1550.24 | 1544.79 | 1539.24
